Drawing on ChEMBL document CHEMBL1147954, “Synthesis and antiproliferative activity of some novel derivatives of diospyrin, a plant-derived naphthoquinonoid” (Bioorg Med Chem, 2007), this text covers IC50 for nine compounds.

One experiment deals with A-375. The experiment can be described thus: Cytotoxicity against human A375 cells after 24 hrs by MTT assay. It counts as functional, cell-based. The conditions noted are these: A-375, 24 h. On the technique in general: Tetrazolium dyes change colour on reduction, which living cells bring about.
Experiment [1] in a line: Cytotoxicity against mouse EAC cells after 24 hrs by MTT assay. Particulars: Ehrlich. It counts as functional, cell-based.
A further experiment concerns PBMC. The experiment can be described thus: Cytotoxicity against human PBMCs after 24 hrs by MTT assay. It counts as cell-based.
The subject of another experiment is HEp-2. Put plainly: Cytotoxicity against human Hep2 cells after 24 hrs by MTT assay. It counts as functional, cell-based. The conditions noted are these: HEp-2, 24 h.

In general, IC50 refers to the concentration that gives 50% inhibition. High values mean weaker potency, low ones greater potency.

In the case of `CCOc1cc(C)cc2c1C(=O)C=C(c1c(C)cc3c(c1OCC)C(=O)C=CC3=O)C2=O`, the IC50 worked out at 1070 nM with A-375, 580 nM in experiment [1], 55500 nM with PBMC and 2390 nM with HEp-2.

As for `COc1cc(C)cc2c1C(=O)C=C(c1c(C)cc3c(c1OC)C(=O)C(NCCO)=CC3=O)C2=O`, the IC50 in the experiment on A-375 amounted to 3180 nM; in experiment [1], 1070 nM; in the experiment on PBMC it was 21800 nM; with HEp-2 it was 1410 nM.

As for `Cc1cc(O)c2c(c1)C(=O)C(c1c(C)cc3c(c1O)C(=O)C=CC3=O)=CC2=O` [DIOSPYRIN], the IC50 in the experiment on A-375 was found to be 820 nM; in experiment [1] it was 840 nM; in the experiment with PBMC, 78300 nM; in the experiment with HEp-2, 3580 nM.

Regarding `CCOc1cc(C)cc2c(O)c(-c3c(C)cc4c(O)ccc(O)c4c3OCC)cc(O)c12`, the IC50 in the experiment on A-375 stood at 960 nM; in experiment [1] it was 390 nM; in the experiment with PBMC, 59600 nM; in the experiment on HEp-2 it was 1670 nM.

With `COc1cc(C)cc2c1C(=O)C=C(c1c(C)cc3c(c1OC)C(=O)C(SCCO)=CC3=O)C2=O`, the IC50 in the experiment with A-375 was 190 nM; in experiment [1], 260 nM; in the experiment with PBMC, 95500 nM; in the experiment on HEp-2, 1730 nM.

Consider `CCOc1cc(C)cc2c1C(=O)C=C(c1c(C)cc3c(c1OCC)C(=O)C(NCCO)=CC3=O)C2=O`, for which the IC50 in the experiment on A-375 came out at 70 nM; in experiment [1], 30 nM; with PBMC it was 65400 nM; in the experiment on HEp-2, 850 nM.

Regarding `COc1cc(C)cc2c1C(=O)C1OC1(c1c(C)cc3c(c1OC)C(=O)C1OC1C3=O)C2=O` (stereo unspecified), the IC50 in the experiment on A-375 stood at 30 nM; in experiment [1] it was 90 nM; in the experiment on PBMC, 98200 nM; with HEp-2 it was 210 nM.

As to `COc1cccc2c1C(=O)c1c(O)c3c(c(O)c1C2=O)C[C@@](O)(C(=O)CO)C[C@@H]3O[C@H]1C[C@H](N)[C@H](O)[C@H](C)O1` [DOXORUBICIN], the IC50 in the experiment on A-375 is 10 nM; in experiment [1] it was over 10000 nM; in the experiment on PBMC, 15500 nM; in the experiment with HEp-2 it was 420 nM.

With `COc1cc(C)cc2c1C(=O)C=C(c1c(C)cc3c(c1OC)C(=O)C=CC3=O)C2=O`, the IC50 with A-375 turned out to be 200 nM; in experiment [1], 650 nM; in the experiment with PBMC, 53300 nM; in the experiment with HEp-2, 390 nM.
